Results taken from ChEMBL document CHEMBL6109069 (J Med Chem, 2025).
The source made the active and inactive calls. The rule behind the calls is not given here. Non-standard residues stand in square brackets, D forms with d. Residues, ends and D or L forms follow the SMILES beside them. *: point of attachment. Hexenoyl(2E,4S-Me) = CC[C@H](C)/C=C/C(=O)*; Leu(3R-OH) = CC(C)[C@@H](O)[C@H](N)C(=O)O; NH((S)CH(Me)CH2NMe2) = C[C@@H](CN(C)C)N*; NH(2-morpholinoethyl) = C(CN1CCOCC1)N*; Pro(4S-Me) = C[C@@H]1CN[C@H](C(=O)O)C1; NH(1-CH2NMe2-cBu) = CN(C)CC1(N*)CCC1; Gly(octyl) = CCCCCCCC[C@H](N)C(=O)O; Oxazole4CO(2-Me) = Cc1nc(C(=O)*)co1; Benzoyl(4-F) = O=C(c1ccc(F)cc1)*; hCha = N[C@@H](CCC1CCCCC1)C(=O)O; Tle = CC(C)(C)[C@H](N)C(=O)O; NHCH2CH2NMe2 = CN(C)CCN*; Nle = CCCC[C@H](N)C(=O)O; Hexanoyl = CCCCCC(=O)*; Aib = CC(C)(N)C(=O)O; X2 = CN(CCN*)CC(F)F; βAla = NCCC(=O)O; tBu = CC(C)(C)*

What was measured:
Trypanosoma cruzi = experiment: Antitrypanosomal activity against Trypanosoma cruzi Tulahuen C4 incubated for 4 days; type: functional, organism-based; settings: Tulahuen C4, 96 h
Leishmania donovani = experiment: Antitrypanosomal activity against Leishmania donovani MHOM/ET/67/L82 incubated for 72 hrs by resazurin staining based analysis; type: functional, organism-based; settings: MHOM/ET/67/L82, 72 h
Plasmodium falciparum = experiment: Antiplasmodial activity against Plasmodium falciparum NF54 incubated for 48 hrs; type: functional, organism-based; settings: NF54, 48 h
[1] = test system: Trypanosoma brucei rhodesiense; experiment: Antitrypanosomal activity against Trypanosoma brucei rhodesiense STIB 900; type: functional, organism-based
[2] = Cytotoxicity against rat L6 cells assessed as cell viability; type: toxicity, cell-based
[3] = Inhibition of Bovine heart ATP synthase assessed as inhibition constant by Michaelis-Menten plot analysis; design: species or system Bos taurus
[4] = Cytotoxicity against rat L6 cells assessed as cell viability incubated for 72 hrs by CCK-8 assay
[5] = test system: Trypanosoma brucei rhodesiense; experiment: Antitrypanosomal activity against Trypanosoma brucei rhodesiense STIB 900 incubated for 72 hrs by resazurin staining based analysis; type: functional, organism-based; settings: STIB 900, 72 h
Fibroblast [6] = experiment: Reduction in respiration rate in human Fibroblast cells assessed as decrease in coupling efficiency at 50 nM incubated up to 60 mins; type: functional, cell-based
Fibroblast [7] = experiment: Reduction in respiration rate in human Fibroblast cells assessed as decrease in coupling efficiency at > 200 nM incubated up to 60 mins; type: functional, cell-based
Lipid bilayer = experiment: Disruption of membrane integrity in bacterial cell membrane mimic POPC/POPG LUVs assessed as calcein leakage at 500 nM measured for 1 mins by fluorescence spectroscopy analysis
Bos taurus = species on record: Bos taurus; experiment: Potency index, ratio of Leucinostatin A Ki to test compound Ki for inhibition of Bovine heart ATP synthase

SMILES | IC50 (Trypanosoma cruzi) | IC50 (Leishmania donovani) | IC50 (Plasmodium falciparum) | IC50 [1] | IC50 [2] | Ki ([3]; read-out: Ki) | IC50 at 72 h [4] | IC50 [5] | Activity (Fibroblast [6]) | Activity (Fibroblast [7]) | Activity (Lipid bilayer) | Ratio Ki (Bos taurus) | Ki [3]
CCCC[C@H](NC(=O)[C@@H]1CCCN1C(=O)c1coc(C)n1)C(=O)N[C@@H](CC(C)C)C(=O)NC(C)(C)C(=O)N[C@@H](CC(C)C)C(=O)N[C@@H](CC(C)C)C(=O)NC(C)(C)C(=O)NC(C)(C)C(=O)NCCC(=O)NC1(CN(C)C)CCC1 ({Oxazole4CO(2-Me)}-P[Nle]L[Aib]LL[Aib][Aib][βAla]-{NH(1-CH2NMe2-cBu)}) | 5910 nM | 1530 nM | 118 nM | 6.5 nM | > 8750 nM | – | – | – | – | – | – | – | –
CC(C)C[C@H](NC(=O)[C@H](CCC1CCCCC1)NC(=O)[C@@H]1C[C@H](C)CN1C(=O)c1ccc(F)cc1)C(=O)NC(C)(C)C(=O)N[C@@H](CC(C)C)C(=O)N[C@@H](CC(C)C)C(=O)NC(C)(C)C(=O)NC(C)(C)C(=O)NCCC(=O)N[C@@H](C)CN(C)C ({Benzoyl(4-F)}-[Pro(4S-Me)][hCha]L[Aib]LL[Aib][Aib][βAla]-{NH((S)CH(Me)CH2NMe2)}) | 3.9 nM | 0.34 nM | 1.3 nM | – | – | 84 nM | 266 nM | 0.3 nM | Active | Active | – | – | –
CC[C@H](C)/C=C/C(=O)N1C[C@@H](C)C[C@H]1C(=O)N[C@@H](CCC1CCCCC1)C(=O)N[C@@H](CC(C)C)C(=O)NC(C)(C)C(=O)N[C@@H](CC(C)C)C(=O)N[C@@H](CC(C)C)C(=O)NC(C)(C)C(=O)NC(C)(C)C(=O)NCCC(=O)N[C@@H](C)CN(C)C ({Hexenoyl(2E,4S-Me)}-[Pro(4S-Me)][hCha]L[Aib]LL[Aib][Aib][βAla]-{NH((S)CH(Me)CH2NMe2)}) | 43 nM | 1.3 nM | 0.69 nM | – | – | 107 nM | 157 nM | 0.26 nM | – | Active | – | – | –
CC(C)C[C@H](NC(=O)[C@H](CCC1CCCCC1)NC(=O)[C@@H]1CCCN1C(=O)c1ccc(F)cc1)C(=O)NC(C)(C)C(=O)N[C@@H](CC(C)C)C(=O)N[C@@H](CC(C)C)C(=O)NC(C)(C)C(=O)NC(C)(C)C(=O)NCCC(=O)NCCN(C)C ({Benzoyl(4-F)}-P[hCha]L[Aib]LL[Aib][Aib][βAla]-NHCH2CH2NMe2) | – | – | – | 3.9 nM | – | 455 nM | – | – | – | – | Active | – | –
CC[C@H](C)/C=C/C(=O)N1C[C@@H](C)C[C@H]1C(=O)N[C@@H](CCC1CCCCC1)C(=O)N[C@H](C(=O)NC(C)(C)C(=O)N[C@@H](CC(C)C)C(=O)N[C@@H](CC(C)C)C(=O)NC(C)(C)C(=O)NC(C)(C)C(=O)NCCC(=O)N[C@@H](C)CN(C)C)[C@H](O)C(C)C ({Hexenoyl(2E,4S-Me)}-[Pro(4S-Me)][hCha][Leu(3R-OH)][Aib]LL[Aib][Aib][βAla]-{NH((S)CH(Me)CH2NMe2)}) | 275 nM | 1.2 nM | 0.47 nM | – | – | 22 nM | 232 nM | 0.34 nM | – | Active | – | 4 | –
N#CC(C#N)=NNc1ccc(OC(F)(F)F)cc1 | – | – | – | – | – | – | – | – | – | – | – | – | Not_determined
Cc1nc(C(=O)N2CCC[C@H]2C(=O)N[C@@H](CCC2CCCCC2)C(=O)N[C@@H](CC(C)C)C(=O)NC(C)(C)C(=O)N[C@@H](CC(C)C)C(=O)N[C@@H](CC(C)C)C(=O)NC(C)(C)C(=O)NC(C)(C)C(=O)NCCC(=O)NC2(CN(C)C)CCC2)co1 ({Oxazole4CO(2-Me)}-P[hCha]L[Aib]LL[Aib][Aib][βAla]-{NH(1-CH2NMe2-cBu)}) | 193 nM | 11 nM | 4.8 nM | 0.76 nM | – | – | – | – | – | – | – | – | –
CC(C)C[C@H](NC(=O)[C@H](CCC1CCCCC1)NC(=O)[C@@H]1CCCN1C(=O)c1ccc(F)cc1)C(=O)NC(C)(C)C(=O)N[C@@H](CC(C)C)C(=O)N[C@@H](CC(C)C)C(=O)NC(C)(C)C(=O)NC(C)(C)C(=O)NCCC(=O)NCCN(C)CC(F)F ({Benzoyl(4-F)}-P[hCha]L[Aib]LL[Aib][Aib][βAla]-X2) | – | – | – | 393 nM | – | 499 nM | – | – | – | – | Active | – | –
CCCCCC(=O)N1CCC[C@H]1C(=O)N[C@@H](CCC1CCCCC1)C(=O)N[C@@H](CC(C)C)C(=O)NC(C)(C)C(=O)N[C@@H](CC(C)C)C(=O)N[C@@H](CC(C)C)C(=O)NC(C)(C)C(=O)NC(C)(C)C(=O)NCCC(=O)N[C@@H](C)CN(C)C (Hexanoyl-P[hCha]L[Aib]LL[Aib][Aib][βAla]-{NH((S)CH(Me)CH2NMe2)}) | – | – | – | – | – | 139 nM | – | – | – | – | – | – | –
Cc1nc(C(=O)N2CCC[C@H]2C(=O)N[C@H](C(=O)N[C@@H](CC(C)C)C(=O)NC(C)(C)C(=O)N[C@@H](CC(C)C)C(=O)N[C@@H](CC(C)C)C(=O)NC(C)(C)C(=O)NC(C)(C)C(=O)NCCC(=O)NC2(CN(C)C)CCC2)C(C)(C)C)co1 ({Oxazole4CO(2-Me)}-P[Tle]L[Aib]LL[Aib][Aib][βAla]-{NH(1-CH2NMe2-cBu)}) | 6520 nM | 1190 nM | 212 nM | 4.1 nM | > 8980 nM | 16200 nM | – | – | – | – | – | – | –
CC(C)C[C@H](NC(=O)[C@H](CC(C)C)NC(=O)C(C)(C)NC(=O)[C@@H](NC(=O)[C@H](CCC1CCCCC1)NC(=O)[C@@H]1CCCN1C(=O)c1ccc(F)cc1)[C@H](O)C(C)C)C(=O)NC(C)(C)C(=O)NC(C)(C)C(=O)NCCC(=O)N[C@@H](C)CN(C)C ({Benzoyl(4-F)}-P[hCha][Leu(3R-OH)][Aib]LL[Aib][Aib][βAla]-{NH((S)CH(Me)CH2NMe2)}) | 1130 nM | 6.7 nM | 3 nM | – | – | 134 nM | 1230 nM | 1.3 nM | – | – | – | – | –
CCCCCCCC[C@H](NC(=O)[C@@H]1C[C@H](C)CN1C(=O)/C=C/[C@@H](C)CC)C(=O)N[C@H](C(=O)NC(C)(C)C(=O)N[C@@H](CC(C)C)C(=O)N[C@@H](CC(C)C)C(=O)NC(C)(C)C(=O)NC(C)(C)C(=O)NCCC(=O)N[C@@H](C)CN(C)C)[C@H](O)C(C)C ({Hexenoyl(2E,4S-Me)}-[Pro(4S-Me)][Gly(octyl)][Leu(3R-OH)][Aib]LL[Aib][Aib][βAla]-{NH((S)CH(Me)CH2NMe2)}) | 24 nM | 0.69 nM | 0.34 nM | – | – | 53 nM | 77 nM | 0.34 nM | – | – | – | – | –
CC(C)C[C@H](NC(=O)[C@H](CCC1CCCCC1)NC(=O)[C@@H]1CCCN1C(=O)c1ccc(F)cc1)C(=O)NC(C)(C)C(=O)N[C@@H](CC(C)C)C(=O)N[C@@H](CC(C)C)C(=O)NC(C)(C)C(=O)NC(C)(C)C(=O)NCCC(=O)NCCN1CCOCC1 ({Benzoyl(4-F)}-P[hCha]L[Aib]LL[Aib][Aib][βAla]-{NH(2-morpholinoethyl)}) | – | – | – | 72 nM | – | 703 nM | – | – | – | – | – | – | –
CC[C@H](C)/C=C/C(=O)N1CCC[C@H]1C(=O)N[C@@H](CCC1CCCCC1)C(=O)N[C@H](C(=O)NC(C)(C)C(=O)N[C@@H](CC(C)C)C(=O)N[C@@H](CC(C)C)C(=O)NC(C)(C)C(=O)NC(C)(C)C(=O)NCCC(=O)N[C@@H](C)CN(C)C)[C@H](O)C(C)C ({Hexenoyl(2E,4S-Me)}-P[hCha][Leu(3R-OH)][Aib]LL[Aib][Aib][βAla]-{NH((S)CH(Me)CH2NMe2)}) | 180 nM | 0.53 nM | 0.52 nM | – | – | 29 nM | 208 nM | 0.56 nM | – | – | – | – | –
Cc1nc(C(=O)N2CCC[C@H]2C(=O)N[C@@H](COC(C)(C)C)C(=O)N[C@@H](CC(C)C)C(=O)NC(C)(C)C(=O)N[C@@H](CC(C)C)C(=O)N[C@@H](CC(C)C)C(=O)NC(C)(C)C(=O)NC(C)(C)C(=O)NCCC(=O)NC2(CN(C)C)CCC2)co1 ({Oxazole4CO(2-Me)}-PS(tBu)L[Aib]LL[Aib][Aib][βAla]-{NH(1-CH2NMe2-cBu)}) | 6410 nM | 166 nM | 272 nM | 3.9 nM | > 8750 nM | 18100 nM | – | – | – | – | – | – | –
CC(C)C[C@H](NC(=O)[C@H](CC(C)C)NC(=O)C(C)(C)NC(=O)[C@@H](NC(=O)[C@H](CCC1CCCCC1)NC(=O)[C@@H]1C[C@H](C)CN1C(=O)c1ccc(F)cc1)[C@H](O)C(C)C)C(=O)NC(C)(C)C(=O)NC(C)(C)C(=O)NCCC(=O)N[C@@H](C)CN(C)C ({Benzoyl(4-F)}-[Pro(4S-Me)][hCha][Leu(3R-OH)][Aib]LL[Aib][Aib][βAla]-{NH((S)CH(Me)CH2NMe2)}) | 423 nM | 10 nM | 3.4 nM | – | – | 55 nM | 1340 nM | 0.63 nM | Active | Active | – | – | –
Cc1nc(C(=O)N2CCC[C@H]2C(=O)N[C@@H](Cc2c[nH]c3ccccc23)C(=O)N[C@@H](CC(C)C)C(=O)NC(C)(C)C(=O)N[C@@H](CC(C)C)C(=O)N[C@@H](CC(C)C)C(=O)NC(C)(C)C(=O)NC(C)(C)C(=O)NCCC(=O)NC2(CN(C)C)CCC2)co1 ({Oxazole4CO(2-Me)}-PWL[Aib]LL[Aib][Aib][βAla]-{NH(1-CH2NMe2-cBu)}) | 2700 nM | 31 nM | 18 nM | 1.3 nM | – | – | – | – | – | – | – | – | –
